Here are results for 4 compounds from patent US20070167427A1, “1,2,4-Triazolo[4,3-a]pyridines useful in the treatment of gastrointestinal disorders” (Altana Pharma AG, priority 2004, published 2007).

Data set [1] concerns pentagastrin-stimulated acid secretion of the perfused rat stomach. The data set can be described thus: Secretion-inhibiting action on the perfused rat stomach (pentagastrin-stimulated acid secretion, intraduodenal administration in vivo). The settings on record: anesthetized female CD rat, dose 1.0 μmol/kg i.d. From the text: Testing of the Secretion-inhibiting Action on the Perfused Rat Stomach
In Table A which follows, the influence of the compounds according to the invention on the pentagastrin-stimulated acid secretion of the perfused rat stomach after intraduodenal administration in vivo is shown.
The abdomen of anesthetized rats (CD rat, female, 200-250 g; 1.5 g/kg i.m. urethane) was opened after tracheotomy by a median upper abdominal incision and a PVC catheter was fixed transorally in the esophagus and another via the pylorus such that the ends of the tubes just projected into the gastric lumen. The catheter leading from the pylorus led outward into the right abdominal wall through a side opening.
After thorough rinsing (about 50-100 ml), warm (37° C.) physiological NaCl solution was continuously passed through the stomach (0.5 ml/min, pH 6.8-6.9; Braun-Unita I). The pH (pH meter 632, glass electrode EA 147; φ=5 mm, Metrohm) and, by titration with a freshly prepared 0.01N NaOH solution to pH 7 (Dosimat 665 Metrohm), the secreted HCl were determined in the effluent in each case collected at an interval of 15 minutes.
The gastric secretion was stimulated by continuous infusion of […] (=1.65 ml/h) of i.v. pentagastrin (left femoral vein) about 30 min after the end of the operation (i.e. after determination of 2 preliminary fractions). […]

`CCc1cccc(C)c1CNc1cc(C(=O)O)cn2c(C)nnc12` [Example 2, 8-(2-Ethyl-6-methyl-benzylamino)-3-methyl[1,2,4]triazolo[4,3-a]pyridine-6-carboxylic acid]: the melting point (usually the temperature of the solid-liquid transition) was 328.1 °C.
`CCc1cccc(C)c1CNc1cc(C(=O)N(C)C)cn2c(C)nnc12` [Example 3, 8-(2-Ethyl-6-methylbenzylamino)-N,N,3-trimethyl[1,2,4]triazolo[4,3-a]pyridine-6-carboxamide] registered a melting point of 201.3 °C. For the same compound, in data set [1], the “Inhibition of acid secretion” value is recorded as above 30%.
The compound `CCc1cccc(C)c1CNc1cc(C(=O)OC)cn2c(C)nnc12` [Example 1, 8-(2-Ethyl-6-methyl-benzylamino)-3-methyl[1,2,4]triazolo[4,3-a]pyridine-6-carboxylic acid methyl ester] showed a melting point of 214.4 °C.
With `CCc1cccc(C)c1CNc1cc(C(=O)NCCOC)cn2c(C)nnc12` [Example 4, 8-(2-Ethyl-6-methylbenzylamino)-N-(2-methoxyethyl)-3-methyl[1,2,4]triazolo-[4,3-a]pyridine-6-arboxamide], the “Inhibition of acid secretion” value in data set [1] is recorded as above 30%.
